Laboratory results published in the NIST ThermoML archive (doi:10.1016/j.fluid.2017.11.013).
Values joined by “and” are separate entries in the source; they are usually repeats but may differ in a detail not shown here. Equal values may be shown once.

Conditions: Coaxial cylinder method

C=C [ethene]
Conditions	thermal conductivity
285.04 K, 6160 kPa, Fluid (supercritical or subcritical phases)	0.06936 W/m/K
285.04 K, 6760 kPa, Fluid (supercritical or subcritical phases)	0.07168 W/m/K
285.04 K, 7250 kPa, Fluid (supercritical or subcritical phases)	0.07341 W/m/K
285.04 K, 8160 kPa, Fluid (supercritical or subcritical phases)	0.07598 W/m/K
285.04 K, 9010 kPa, Fluid (supercritical or subcritical phases)	0.07839 W/m/K
285.04 K, 9690 kPa, Fluid (supercritical or subcritical phases)	0.0804 W/m/K
285.04 K, 9800 kPa, Fluid (supercritical or subcritical phases)	0.08072 W/m/K
285.04 K, 9810 kPa, Fluid (supercritical or subcritical phases)	0.08067 W/m/K
285.04 K, 9830 kPa, Fluid (supercritical or subcritical phases)	0.0807 W/m/K
285.04 K, 9850 kPa, Fluid (supercritical or subcritical phases)	0.08058 W/m/K
285.04 K, 9900 kPa, Fluid (supercritical or subcritical phases)	0.08077 W/m/K
285.04 K, 9920 kPa, Fluid (supercritical or subcritical phases)	0.08085 W/m/K
285.04 K, 9950 kPa, Fluid (supercritical or subcritical phases)	0.08076 W/m/K and 0.08065 W/m/K
285.04 K, 10000 kPa, Fluid (supercritical or subcritical phases)	0.08079 W/m/K
285.04 K, 10180 kPa, Fluid (supercritical or subcritical phases)	0.08121 W/m/K
285.04 K, 10350 kPa, Fluid (supercritical or subcritical phases)	0.08166 W/m/K
285.04 K, 10570 kPa, Fluid (supercritical or subcritical phases)	0.08194 W/m/K
288.24 K, 4580 kPa, Fluid (supercritical or subcritical phases)	0.03085 W/m/K
288.24 K, 5100 kPa, Fluid (supercritical or subcritical phases)	0.03767 W/m/K
288.24 K, 5360 kPa, Fluid (supercritical or subcritical phases)	0.04634 W/m/K
288.24 K, 5510 kPa, Fluid (supercritical or subcritical phases)	0.05465 W/m/K
288.24 K, 5570 kPa, Fluid (supercritical or subcritical phases)	0.06007 W/m/K
288.24 K, 5630 kPa, Fluid (supercritical or subcritical phases)	0.06943 W/m/K
288.24 K, 5680 kPa, Fluid (supercritical or subcritical phases)	0.07371 W/m/K
288.24 K, 5790 kPa, Fluid (supercritical or subcritical phases)	0.0746 W/m/K
288.24 K, 5920 kPa, Fluid (supercritical or subcritical phases)	0.06841 W/m/K
288.24 K, 6000 kPa, Fluid (supercritical or subcritical phases)	0.06651 W/m/K
288.24 K, 6240 kPa, Fluid (supercritical or subcritical phases)	0.06542 W/m/K
288.24 K, 6570 kPa, Fluid (supercritical or subcritical phases)	0.06758 W/m/K
288.24 K, 7140 kPa, Fluid (supercritical or subcritical phases)	0.06951 W/m/K
294.62 K, 5100 kPa, Fluid (supercritical or subcritical phases)	0.03346 W/m/K
294.62 K, 5370 kPa, Fluid (supercritical or subcritical phases)	0.03618 W/m/K
294.62 K, 6200 kPa, Fluid (supercritical or subcritical phases)	0.05841 W/m/K
294.62 K, 6290 kPa, Fluid (supercritical or subcritical phases)	0.06125 W/m/K
294.62 K, 6530 kPa, Fluid (supercritical or subcritical phases)	0.06505 W/m/K
294.62 K, 6690 kPa, Fluid (supercritical or subcritical phases)	0.066 W/m/K
294.62 K, 6770 kPa, Fluid (supercritical or subcritical phases)	0.06592 W/m/K
294.62 K, 6870 kPa, Fluid (supercritical or subcritical phases)	0.06592 W/m/K
294.62 K, 6950 kPa, Fluid (supercritical or subcritical phases)	0.06591 W/m/K
294.62 K, 7030 kPa, Fluid (supercritical or subcritical phases)	0.0659 W/m/K
294.62 K, 7130 kPa, Fluid (supercritical or subcritical phases)	0.06589 W/m/K
294.62 K, 7360 kPa, Fluid (supercritical or subcritical phases)	0.06665 W/m/K
294.62 K, 7490 kPa, Fluid (supercritical or subcritical phases)	0.06627 W/m/K
294.62 K, 7670 kPa, Fluid (supercritical or subcritical phases)	0.06623 W/m/K
294.62 K, 7690 kPa, Fluid (supercritical or subcritical phases)	0.06625 W/m/K
294.62 K, 8210 kPa, Fluid (supercritical or subcritical phases)	0.06804 W/m/K
294.62 K, 8570 kPa, Fluid (supercritical or subcritical phases)	0.06916 W/m/K
294.62 K, 9220 kPa, Fluid (supercritical or subcritical phases)	0.07111 W/m/K
294.62 K, 9740 kPa, Fluid (supercritical or subcritical phases)	0.07276 W/m/K
294.62 K, 10280 kPa, Fluid (supercritical or subcritical phases)	0.07482 W/m/K
294.62 K, 10840 kPa, Fluid (supercritical or subcritical phases)	0.07574 W/m/K
301.6 K, 1010 kPa, Fluid (supercritical or subcritical phases)	0.02196 W/m/K
301.6 K, 1900 kPa, Fluid (supercritical or subcritical phases)	0.02294 W/m/K
301.6 K, 2940 kPa, Fluid (supercritical or subcritical phases)	0.02469 W/m/K
301.6 K, 3920 kPa, Fluid (supercritical or subcritical phases)	0.02736 W/m/K
301.6 K, 5010 kPa, Fluid (supercritical or subcritical phases)	0.03136 W/m/K
301.6 K, 5560 kPa, Fluid (supercritical or subcritical phases)	0.0359 W/m/K
301.6 K, 5610 kPa, Fluid (supercritical or subcritical phases)	0.03586 W/m/K
301.6 K, 6120 kPa, Fluid (supercritical or subcritical phases)	0.0417 W/m/K and 0.04209 W/m/K
301.6 K, 6550 kPa, Fluid (supercritical or subcritical phases)	0.0488 W/m/K
301.6 K, 6780 kPa, Fluid (supercritical or subcritical phases)	0.05244 W/m/K
301.6 K, 6930 kPa, Fluid (supercritical or subcritical phases)	0.05667 W/m/K
301.6 K, 7100 kPa, Fluid (supercritical or subcritical phases)	0.05988 W/m/K
301.6 K, 7230 kPa, Fluid (supercritical or subcritical phases)	0.06174 W/m/K
301.6 K, 7400 kPa, Fluid (supercritical or subcritical phases)	0.06342 W/m/K
301.6 K, 7430 kPa, Fluid (supercritical or subcritical phases)	0.06371 W/m/K
301.6 K, 7440 kPa, Fluid (supercritical or subcritical phases)	0.06376 W/m/K
301.6 K, 7460 kPa, Fluid (supercritical or subcritical phases)	0.06392 W/m/K
301.6 K, 7480 kPa, Fluid (supercritical or subcritical phases)	0.06395 W/m/K
301.6 K, 7570 kPa, Fluid (supercritical or subcritical phases)	0.06425 W/m/K
301.6 K, 7680 kPa, Fluid (supercritical or subcritical phases)	0.06462 W/m/K
301.6 K, 7720 kPa, Fluid (supercritical or subcritical phases)	0.06482 W/m/K
301.6 K, 7760 kPa, Fluid (supercritical or subcritical phases)	0.06461 W/m/K
301.6 K, 7800 kPa, Fluid (supercritical or subcritical phases)	0.06479 W/m/K
301.6 K, 7820 kPa, Fluid (supercritical or subcritical phases)	0.06483 W/m/K
301.6 K, 7980 kPa, Fluid (supercritical or subcritical phases)	0.06482 W/m/K
301.6 K, 8360 kPa, Fluid (supercritical or subcritical phases)	0.0649 W/m/K
301.6 K, 9100 kPa, Fluid (supercritical or subcritical phases)	0.0668 W/m/K
301.6 K, 10390 kPa, Fluid (supercritical or subcritical phases)	0.0716 W/m/K
301.6 K, 12800 kPa, Fluid (supercritical or subcritical phases)	0.07701 W/m/K
301.6 K, 14950 kPa, Fluid (supercritical or subcritical phases)	0.08151 W/m/K
301.6 K, 18120 kPa, Fluid (supercritical or subcritical phases)	0.08743 W/m/K
301.6 K, 20700 kPa, Fluid (supercritical or subcritical phases)	0.09068 W/m/K
301.6 K, 20800 kPa, Fluid (supercritical or subcritical phases)	0.09075 W/m/K
301.6 K, 25600 kPa, Fluid (supercritical or subcritical phases)	0.09706 W/m/K
301.6 K, 31800 kPa, Fluid (supercritical or subcritical phases)	0.1039 W/m/K
301.6 K, 40300 kPa, Fluid (supercritical or subcritical phases)	0.1138 W/m/K
301.6 K, 45200 kPa, Fluid (supercritical or subcritical phases)	0.1185 W/m/K
301.6 K, 50400 kPa, Fluid (supercritical or subcritical phases)	0.1236 W/m/K
301.6 K, 55500 kPa, Fluid (supercritical or subcritical phases)	0.1283 W/m/K
301.6 K, 59300 kPa, Fluid (supercritical or subcritical phases)	0.132 W/m/K
301.6 K, 61000 kPa, Fluid (supercritical or subcritical phases)	0.1337 W/m/K and 0.1336 W/m/K
301.6 K, 62000 kPa, Fluid (supercritical or subcritical phases)	0.1342 W/m/K
301.6 K, 65000 kPa, Fluid (supercritical or subcritical phases)	0.1366 W/m/K
301.6 K, 65300 kPa, Fluid (supercritical or subcritical phases)	0.1372 W/m/K
301.6 K, 65700 kPa, Fluid (supercritical or subcritical phases)	0.1378 W/m/K
301.6 K, 66000 kPa, Fluid (supercritical or subcritical phases)	0.1378 W/m/K
301.6 K, 70000 kPa, Fluid (supercritical or subcritical phases)	0.1414 W/m/K
302.21 K, 101 kPa, Gas	0.02112 W/m/K
303.1 K, 101 kPa, Gas	0.0207 W/m/K
425 K, 101 kPa, Gas	0.0381 W/m/K
425.46 K, 500 kPa, Fluid (supercritical or subcritical phases)	0.03821 W/m/K
425.46 K, 1000 kPa, Fluid (supercritical or subcritical phases)	0.03832 W/m/K
425.46 K, 2500 kPa, Fluid (supercritical or subcritical phases)	0.03937 W/m/K
425.46 K, 5000 kPa, Fluid (supercritical or subcritical phases)	0.04226 W/m/K
425.46 K, 7300 kPa, Fluid (supercritical or subcritical phases)	0.04435 W/m/K
425.46 K, 10000 kPa, Fluid (supercritical or subcritical phases)	0.04845 W/m/K
425.46 K, 12200 kPa, Fluid (supercritical or subcritical phases)	0.0528 W/m/K
425.46 K, 14600 kPa, Fluid (supercritical or subcritical phases)	0.05769 W/m/K and 0.05771 W/m/K
425.46 K, 14800 kPa, Fluid (supercritical or subcritical phases)	0.05814 W/m/K
425.46 K, 20000 kPa, Fluid (supercritical or subcritical phases)	0.06783 W/m/K
425.46 K, 24900 kPa, Fluid (supercritical or subcritical phases)	0.07364 W/m/K
425.46 K, 30000 kPa, Fluid (supercritical or subcritical phases)	0.07726 W/m/K
425.46 K, 40600 kPa, Fluid (supercritical or subcritical phases)	0.08392 W/m/K
425.46 K, 50500 kPa, Fluid (supercritical or subcritical phases)	0.0908 W/m/K
425.46 K, 60700 kPa, Fluid (supercritical or subcritical phases)	0.09875 W/m/K
425.46 K, 70300 kPa, Fluid (supercritical or subcritical phases)	0.1051 W/m/K
425.46 K, 71800 kPa, Fluid (supercritical or subcritical phases)	0.1068 W/m/K
425.46 K, 73700 kPa, Fluid (supercritical or subcritical phases)	0.109 W/m/K
425.46 K, 75000 kPa, Fluid (supercritical or subcritical phases)	0.1098 W/m/K
425.46 K, 79000 kPa, Fluid (supercritical or subcritical phases)	0.1119 W/m/K
425.46 K, 81900 kPa, Fluid (supercritical or subcritical phases)	0.1144 W/m/K
425.46 K, 89500 kPa, Fluid (supercritical or subcritical phases)	0.1184 W/m/K
425.46 K, 93500 kPa, Fluid (supercritical or subcritical phases)	0.1214 W/m/K
425.46 K, 97000 kPa, Fluid (supercritical or subcritical phases)	0.1232 W/m/K
425.46 K, 100000 kPa, Fluid (supercritical or subcritical phases)	0.1251 W/m/K
425.62 K, 101 kPa, Gas	0.03809 W/m/K
